ChEMBL document CHEMBL5241114, “A comprehensive review of BET-targeting PROTACs for cancer therapy” (Bioorg Med Chem, 2022)

Assays:
[1] = molecular target: T1, Bromodomain-containing protein 4 (Homo sapiens, UniProt O60885); test: Induction of BRD4 degradation in human HEK293T cells at 10 uM measured at 6 hrs relative to control; type: cell-based
[2] = molecular target: T1, Bromodomain-containing protein 4; test: Induction of BRD4 degradation in human HEK293T cells; type: cell-based
MDA-MB-468 = test: Antiproliferative activity against human MDA-MB-468 cells assessed as inhibition of cell growth; type: functional, cell-based
MV4-11 [3] = test: Antiproliferative activity against human MV4-11 cells assessed as inhibition of cell growth; type: functional, cell-based
[4] = molecular target: T1, Bromodomain-containing protein 4; test: Induction of degradation of BRD4 (unknown origin)
MM1.S = test: Antiproliferative activity against human MM1.S cells assessed as inhibition of cell growth; type: functional, cell-based
[5] = molecular target: T1, Bromodomain-containing protein 4; test: Induction of BRD4 degradation in human 231MFP cells; type: cell-based
[6] = molecular target: T2, Bromodomain-containing protein 2 (Homo sapiens, UniProt P25440); test: Induction of BRD2 degradation in human LNCaP-95 cells incubated for 16 hrs by Western blot analysis; type: cell-based
T2 sequence (P25440 whole entry): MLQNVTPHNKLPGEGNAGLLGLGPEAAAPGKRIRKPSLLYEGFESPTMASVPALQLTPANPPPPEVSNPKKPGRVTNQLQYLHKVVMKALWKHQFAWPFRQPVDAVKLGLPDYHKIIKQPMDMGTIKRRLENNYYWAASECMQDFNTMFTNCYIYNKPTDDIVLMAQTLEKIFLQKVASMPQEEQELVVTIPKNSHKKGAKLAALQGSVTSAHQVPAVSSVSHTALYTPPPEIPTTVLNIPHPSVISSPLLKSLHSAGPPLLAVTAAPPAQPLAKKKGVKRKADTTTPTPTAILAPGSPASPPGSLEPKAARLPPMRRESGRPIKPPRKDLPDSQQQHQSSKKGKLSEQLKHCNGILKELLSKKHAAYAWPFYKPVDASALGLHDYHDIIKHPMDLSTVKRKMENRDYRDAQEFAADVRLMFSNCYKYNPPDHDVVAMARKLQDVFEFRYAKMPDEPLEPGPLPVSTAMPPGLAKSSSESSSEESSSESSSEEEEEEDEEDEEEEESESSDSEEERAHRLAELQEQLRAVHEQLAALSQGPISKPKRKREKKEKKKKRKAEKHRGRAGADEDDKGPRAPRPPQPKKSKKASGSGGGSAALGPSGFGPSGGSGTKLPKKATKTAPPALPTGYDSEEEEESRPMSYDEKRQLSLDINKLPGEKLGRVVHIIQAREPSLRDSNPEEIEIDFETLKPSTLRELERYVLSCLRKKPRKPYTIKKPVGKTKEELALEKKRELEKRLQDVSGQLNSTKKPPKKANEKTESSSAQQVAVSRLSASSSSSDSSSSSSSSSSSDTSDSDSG

[7] = molecular target: von Hippel-Lindau disease tumor suppressor/Bromodomain-containing protein 2 (Homo sapiens, UniProt P25440+P40337); test: Protac activity at BRD2/VHL-bound E3 ligase in human 22Rv1 cells assessed as reduction c-Myc level incubated for 24 hrs by Western blot analysis; type: cell-based
von Hippel-Lindau disease tumor suppressor/Bromodomain-containing protein 2, sequence (P25440 whole entry): as above
von Hippel-Lindau disease tumor suppressor/Bromodomain-containing protein 2, sequence (P40337 whole entry): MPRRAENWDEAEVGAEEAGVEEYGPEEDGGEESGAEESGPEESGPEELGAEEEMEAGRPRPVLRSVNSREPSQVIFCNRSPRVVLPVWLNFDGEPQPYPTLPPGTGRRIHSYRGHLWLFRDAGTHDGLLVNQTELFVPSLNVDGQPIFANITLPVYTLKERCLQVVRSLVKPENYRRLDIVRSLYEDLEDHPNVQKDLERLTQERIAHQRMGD

Caspase-3/Caspase-7 = molecular target: T3, Caspase-3/Caspase-7 (Homo sapiens, UniProt P42574+P55210); test: Activation of caspase 3/7 in human 22Rv1 cells by Caspase-Glo reagent based analysis; type: cell-based
T3 sequence (P42574 whole entry): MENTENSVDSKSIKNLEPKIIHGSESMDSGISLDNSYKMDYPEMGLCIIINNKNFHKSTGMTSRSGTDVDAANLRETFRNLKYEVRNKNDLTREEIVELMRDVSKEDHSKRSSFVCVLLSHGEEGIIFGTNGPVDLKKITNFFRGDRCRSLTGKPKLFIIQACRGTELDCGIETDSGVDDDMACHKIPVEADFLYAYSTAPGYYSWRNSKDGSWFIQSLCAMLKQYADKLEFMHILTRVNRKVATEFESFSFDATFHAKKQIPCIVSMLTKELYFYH
T3 sequence (P55210 whole entry): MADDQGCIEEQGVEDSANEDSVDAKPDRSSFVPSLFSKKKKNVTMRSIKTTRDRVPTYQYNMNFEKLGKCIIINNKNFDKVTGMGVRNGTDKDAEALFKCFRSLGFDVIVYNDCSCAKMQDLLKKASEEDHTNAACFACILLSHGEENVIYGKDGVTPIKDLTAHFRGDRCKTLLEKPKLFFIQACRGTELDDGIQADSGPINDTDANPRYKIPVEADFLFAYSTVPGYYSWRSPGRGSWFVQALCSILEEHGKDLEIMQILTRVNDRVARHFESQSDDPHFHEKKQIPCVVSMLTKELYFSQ

[8] = molecular target: T2, Bromodomain-containing protein 2; test: Induction of BRD2 degradation in human 22Rv cells incubated for 16 hrs by Western blot analysis; type: cell-based; conditions: 22rv1
EOL1 = test: Antiproliferative activity against human EOL1 cells assessed as inhibition of cell growth; type: functional, cell-based
[9] = molecular target: T2, Bromodomain-containing protein 2; test: Induction of BRD2 degradation in human VCaP cells incubated for 16 hrs by Western blot analysis; type: cell-based
HL-60 = test: Antiproliferative activity against human HL-60 cells assessed as inhibition of cell growth; type: functional, cell-based
BXPC-3 = test: Antiproliferative activity against human BXPC-3 cells assessed as inhibition of cell growth incubated for 72 hrs by MTT assay; type: functional, cell-based; conditions: BXPC-3, 72 h
CWR22R = test: Antitumor activity against human 22Rv1 cells xenografted in Nu/Nu mouse assessed as tumor growth inhibition at 30 mg/kg, sc; type: functional; conditions: read-out: TGI
MV4-11 [10] = test: Antiproliferative activity against human MV4-11 cells assessed as cell growth inhibition measured after […] by Cell Titre Glo Luminescent assay; type: functional, cell-based
[11] = molecular target: T1, Bromodomain-containing protein 4; test: Induction of BRD4 degradation in human MCF7 cells incubated for 72 hrs by Western blot analysis relative to control; type: cell-based
MCF7 [12] = test: Antitumor activity against human MCF7 cells xenografted in mouse assessed as tumor growth inhibition; type: functional
[13] = molecular target: T1, Bromodomain-containing protein 4; test: Induction of BRD4 degradation in human MCF7 cells incubated for 72 hrs by Western blot analysis; type: cell-based
[14] = Cytotoxicity against human MCF10 cells assessed as measuring cell viability incubated for 48 hrs by CCK-8 assay; type: toxicity, cell-based
MCF7 [15] = test: Cytotoxicity against human MCF7 cells assessed as measuring cell viability incubated for 48 hrs by CCK-8 assay; type: toxicity, cell-based; conditions: MCF7, 48 h
RS4-11 [16] = test: Antiproliferative activity against human RS4-11 cells assessed as reduction in cell viability incubated for 72 hrs under dark condition; type: functional, cell-based; conditions: RS4-11, 72 h
RS4-11 [17] = test: Antiproliferative activity against human RS4-11 cells assessed as reduction in cell viability incubated for 72 hrs under light irradiation; type: functional, cell-based; conditions: RS4-11, light or radiation study

Cc1sc2c(c1C)C(c1ccc(Cl)cc1)=N[C@@H](CC(=O)NCCOCCOCCOCCN1CCOc3cc(N(CCC#N)C(=O)CCl)ccc31)c1nnc(C)n1-2
Emax [1]: 60%
DC50 [2]: 3600 nM

Cc1sc2c(c1C)C(c1ccc(Cl)cc1)=N[C@@H](CC(=O)NCCCCCNc1cccc3c1CN(C1CCC(=O)NC1=O)C3=O)c1nnc(C)n1-2 (stereo partly drawn)
IC50 (MDA-MB-468): 125 nM
IC50 (MV4-11 [3]): 0.9 nM
DC50 [4]: < 0.5 nM
IC50 (MM1.S): 6.7 nM

COC(=O)C[C@H]1[C@]2(C)C3=C(C)[C@H](c4ccoc4-c4ccc(C(=O)NCCCNC(=O)C[C@@H]5N=C(c6ccc(Cl)cc6)c6c(sc(C)c6C)-n6c(C)nnc65)cc4)C[C@H]3O[C@@H]2[C@@H]2OC(=O)[C@]3(C)C=CC(=O)[C@@]1(C)[C@@H]23
IC50 [5]: 240 nM

Cc1sc2c(c1C)C(c1ccc(Cl)cc1)=N[C@@H](CC(=O)NCCOCCOCCN1CCOc3cc(N(CCC#N)C(=O)CCl)ccc31)c1nnc(C)n1-2
Emax [1]: 85%
DC50 [2]: 1100 nM

Cc1ncsc1-c1ccc([C@H](C)NC(=O)[C@@H]2C[C@@H](O)CN2C(=O)[C@@H](NC(=O)COCCCOCCNC(=O)C[C@@H]2N=C(c3ccc(Cl)cc3)c3c(sc(C)c3C)-n3c(C)nnc32)C(C)(C)C)cc1
DC50 [6]: < 5 nM
IC50 [7]: < 1 nM
EC50 (Caspase-3/Caspase-7): 90 nM
DC50 [8]: < 5 nM
IC50 (EOL1): 1.5 nM
DC50 [9]: < 5 nM
IC50 (HL-60): 1.5 nM

CCS(=O)(=O)Nc1ccc(Oc2ccc(F)cc2F)c(-c2cn(C)c(=O)c3[nH]c(C(=O)NCc4cn(CCOCC(=O)Nc5cccc6c5CN(C5CCC(=O)NC5=O)C6=O)nn4)cc23)c1 (stereo not drawn)
IC50 (BXPC-3): 170 nM

Cc1sc2c(c1C)C(c1ccc(Cl)cc1)=N[C@@H](CC(=O)Nc1ccc(O)cc1)c1nnc(C)n1-2 [BIRABRESIB]
inhibition in vivo at 30 mg/kg (CWR22R): 38%

Cc1ncsc1-c1ccc(CNC(=O)[C@@H]2C[C@@H](O)CN2C(=O)[C@@H](NC(=O)COCCOCCOCCNC(=O)C[C@@H]2N=C(c3ccc(Cl)cc3)c3c(sc(C)c3C)-n3c(C)nnc32)C(C)(C)C)cc1
EC50 (Caspase-3/Caspase-7): 150 nM
IC50 (EOL1): 1.5 nM
IC50 (HL-60): 1.5 nM
EC50 (MV4-11 [10]): 50.1 nM

Cc1sc2c(c1C)C(c1ccc(Cl)cc1)=N[C@@H](CC(=O)NCCOCCOCCOCC(=O)NC(C)C(C)(C)C)c1nnc(C)n1-2 (stereo partly drawn)
Emax [11]: 13%
TGI (MCF7 [12]): 59.8%
DC50 [13]: 22 nM
IC50 at 48 h [14]: 670 nM
IC50 (MCF7 [15]): 59.8 nM

COc1cc(/N=N/c2cccc3c2CN(C2CCC(=O)NC2=O)C3=O)cc(OC)c1OCC(=O)NCCCCNC(=O)C[C@@H]1N=C(c2ccc(Cl)cc2)c2c(sc(C)c2C)-n2c(C)nnc21 (stereo partly drawn)
EC50 (RS4-11 [16]): 610 nM
EC50 (RS4-11 [17]): 88.5 nM

Cc1sc2c(c1C)C(c1ccc(Cl)cc1)=N[C@@H](CC(=O)NCCCNC(=O)CN1CCOc3cc(N(CCC#N)C(=O)CCl)ccc31)c1nnc(C)n1-2
Emax [1]: 71%
DC50 [2]: 810 nM

Cc1sc2c(c1C)C(c1ccc(Cl)cc1)=N[C@@H](CC(=O)NCCOCCNC(=O)CN1CCOc3cc(N(CCC#N)C(=O)CCl)ccc31)c1nnc(C)n1-2
Emax [1]: 81%
DC50 [2]: 820 nM
